From ChEMBL document CHEMBL1201862, “PubChem BioAssay data set” (2004)
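1) Cells in 96-well plates. 2) Compound, 48 h, 5 concentrations. 3) Linear interpolation between surrounding doses. 4) Unreached endpoint = highest concentration. Here, GI50 denotes the concentration required for 50% inhibition of growth.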 Activity calls are given as the source filed them. Cut-off read from the data, not from the text of the source: active = GI50 up to about 1.1 µM and inactive = higher.

What was measured:
Test in all cases: DTP human tumour cell line panel, 48 h
786-0 = tested on: 786-0
CAKI-1 = tested on: CAKI-1
DU-145 = tested on: DU-145
HCC 2998 = tested on: HCC 2998
HCT-15 = tested on: HCT-15
HOP-92 = tested on: HOP-92
KM12 = tested on: KM12
MDA-MB-231 = tested on: MDA-MB-231
MDA-N = tested on: MDA-N
MOLT-4 = tested on: MOLT-4
NCI-H460 = tested on: NCI-H460
PC-3 = tested on: PC-3
RPMI-8226 = tested on: RPMI-8226
SF-539 = tested on: SF-539
SK-MEL-28 = tested on: SK-MEL-28
SK-MEL-2 = tested on: SK-MEL-2
SK-MEL-5 = tested on: SK-MEL-5
SNB-19 = tested on: SNB-19
SR = tested on: SR
SNB-75 = tested on: SNB-75

| SMILES | GI50 (786-0) | GI50 (CAKI-1) | GI50 (DU-145) | GI50 (HCC 2998) | GI50 (HCT-15) [µM] | GI50 (HOP-92) | GI50 (KM12) | GI50 (MDA-MB-231) | GI50 (MDA-N) | GI50 (MOLT-4) | GI50 (NCI-H460) | GI50 (PC-3) | GI50 (RPMI-8226) | GI50 (SF-539) | GI50 (SK-MEL-28) | GI50 (SK-MEL-2) | GI50 (SK-MEL-5) | GI50 (SNB-19) | GI50 (SR) | GI50 (SNB-75) |
| --- | --- | --- | --- | --- | --- | --- | --- | --- | --- | --- | --- | --- | --- | --- | --- | --- | --- | --- | --- | --- |
| Nc1nc(-c2cccnc2)cc(-c2cc(-c3cccnc3)nc(N)n2)n1 | > 100 µM (inactive) | > 100 µM (inactive) | > 100 µM (inactive) | > 100 µM (inactive) | > 100 | > 100 µM (inactive) | > 100 µM (inactive) | > 100 µM (inactive) | 58.7 µM (inactive) | > 100 µM (inactive) | > 100 µM (inactive) | > 100 µM (inactive) | > 100 µM (inactive) | > 100 µM (inactive) | > 100 µM (inactive) | > 100 µM (inactive) | > 100 µM (inactive) | > 100 µM (inactive) | 55.8 µM (inactive) |  |
| C/C(=C\CBr)CCC(Br)C(C)(C)Br (configuration not stated) | > 100 µM (inactive) |  | > 100 µM (inactive) | > 100 µM (inactive) | > 100 | > 100 µM (inactive) | > 100 µM (inactive) | > 100 µM (inactive) | > 100 µM (inactive) | > 100 µM (inactive) | > 100 µM (inactive) | > 100 µM (inactive) | > 100 µM (inactive) | > 100 µM (inactive) | > 100 µM (inactive) | > 100 µM (inactive) | > 100 µM (inactive) | > 100 µM (inactive) | > 100 µM (inactive) | > 91.8 µM (inactive) |
| CC1(O)CC2(O)C=CC3=C(C(=O)c4cccc(O)c4C3=O)C2(O)C(=O)C1O (configuration not stated) | 1.96 µM (inactive) | 0.91 µM (active) | 18.4 µM (inactive) | 4.09 µM (inactive) | 1.28 | 1.07 µM (active) | 8 µM (inactive) | 3.31 µM (inactive) | 1.78 µM (inactive) | 0.56 µM (active) | 15.6 µM (inactive) | 6 µM (inactive) | 1.26 µM (inactive) | 5.5 µM (inactive) | 1.69 µM (inactive) | 4.18 µM (inactive) | 3.3 µM (inactive) | 16.6 µM (inactive) | 2.3 µM (inactive) | 8.38 µM (inactive) |
| COC(=O)C(I(OS(=O)(=O)c1ccc(C)cc1)c1ccccc1)=P(c1ccccc1)(c1ccccc1)c1ccccc1 | 12.4 µM (inactive) | 40.2 µM (inactive) | 15.9 µM (inactive) | 19.2 µM (inactive) | 35.3 | 14.7 µM (inactive) | 19.5 µM (inactive) | 30.1 µM (inactive) | 14.1 µM (inactive) | 20.7 µM (inactive) | 29.9 µM (inactive) | 18.9 µM (inactive) | 5.04 µM (inactive) | 19.4 µM (inactive) | 15.1 µM (inactive) | 18.2 µM (inactive) | 12.2 µM (inactive) | 33.9 µM (inactive) | 19.4 µM (inactive) |  |
| CC(=O)Nc1nc(Cl)cc(NCC2(CO)CCC2)n1 | > 100 µM (inactive) | > 100 µM (inactive) | > 100 µM (inactive) | > 100 µM (inactive) | > 100 | > 100 µM (inactive) | > 100 µM (inactive) | > 100 µM (inactive) | > 100 µM (inactive) | > 100 µM (inactive) | > 100 µM (inactive) | > 100 µM (inactive) | > 100 µM (inactive) |  | > 100 µM (inactive) | > 100 µM (inactive) | > 100 µM (inactive) | > 100 µM (inactive) | > 100 µM (inactive) | > 100 µM (inactive) |
| O=c1ccs[nH]1 | 6.15 µM (inactive) | 9.46 µM (inactive) | 40.5 µM (inactive) | 3.97 µM (inactive) | 11.6 | 16.7 µM (inactive) | 26.7 µM (inactive) | 14.7 µM (inactive) | 17.5 µM (inactive) | 4.53 µM (inactive) | 9.08 µM (inactive) | 12.9 µM (inactive) | 2.7 µM (inactive) | 5.92 µM (inactive) | 25.1 µM (inactive) | 28.3 µM (inactive) | 5.78 µM (inactive) | 32.1 µM (inactive) | 2.54 µM (inactive) | 16.9 µM (inactive) |
| COc1ccc(-c2cc(-c3ccco3)c(C#N)c(=S)n2C2OC(COC(C)=O)C(OC(C)=O)C(OC(C)=O)C2OC(C)=O)cc1 (configuration not stated) | 3.28 µM (inactive) | 3.98 µM (inactive) | 7.94 µM (inactive) | 14.9 µM (inactive) | 31.6 | 4.02 µM (inactive) | 11.9 µM (inactive) | 4.47 µM (inactive) | 5.5 µM (inactive) | 12.3 µM (inactive) | 5.11 µM (inactive) | 4.07 µM (inactive) | 2.96 µM (inactive) | 1.85 µM (inactive) | 3.3 µM (inactive) |  | 10.6 µM (inactive) | 5.66 µM (inactive) | > 10 µM (inactive) | 5.85 µM (inactive) |
| CCC(CCC(C)C1CCC2C3CC=C4CC(OC5OC(CO)C(O)C(O)C5O)CCC4(C)C3CCC12C)C(C)C (configuration not stated) | > 100 µM (inactive) | > 100 µM (inactive) | > 100 µM (inactive) | > 100 µM (inactive) | > 100 | > 100 µM (inactive) | > 100 µM (inactive) | > 100 µM (inactive) | > 100 µM (inactive) | > 100 µM (inactive) | > 100 µM (inactive) | > 100 µM (inactive) | > 100 µM (inactive) | > 100 µM (inactive) | > 100 µM (inactive) | > 100 µM (inactive) | > 100 µM (inactive) | > 100 µM (inactive) | 26.4 µM (inactive) |  |
| O=[N+]([O-])c1ccc(-c2nn3c(C45CC6CC(CC(C6)C4)C5)nnc3s2)c(Cl)c1 | > 100 µM (inactive) | > 100 µM (inactive) | > 100 µM (inactive) | > 100 µM (inactive) | > 100 | > 100 µM (inactive) | > 100 µM (inactive) | > 100 µM (inactive) | > 100 µM (inactive) | > 100 µM (inactive) | > 100 µM (inactive) | > 100 µM (inactive) | > 100 µM (inactive) | > 100 µM (inactive) | > 100 µM (inactive) | > 100 µM (inactive) | > 100 µM (inactive) | > 100 µM (inactive) | > 100 µM (inactive) | > 100 µM (inactive) |
| NC(=O)c1cc2cc(Cl)cc(Cl)c2o/c1=N\c1ccc(F)cc1 | 12.2 µM (inactive) | 18.1 µM (inactive) | 19 µM (inactive) | 21.1 µM (inactive) | 17.3 | 31.9 µM (inactive) | 26.5 µM (inactive) | 17.5 µM (inactive) | 22.4 µM (inactive) | 12.5 µM (inactive) | 17.1 µM (inactive) | 19.1 µM (inactive) | 26.5 µM (inactive) |  | 21.9 µM (inactive) | 16.3 µM (inactive) | 16.9 µM (inactive) | 16.9 µM (inactive) | 4.08 µM (inactive) | 14.8 µM (inactive) |
| C[C@@H]1CCC2[C@@H](C)[C@@H](OCCO[C@H]3OC4O[C@@]5(C)CCC6[C@H](C)CCC([C@H]3C)[C@@]46OO5)OC3O[C@@]4(C)CCC1[C@]32OO4 (some centres not stated) | 0.361 µM (active) | 0.0652 µM (active) | 0.171 µM (active) | 6.92 µM (inactive) | 0.0238 | 2.64 µM (inactive) | 0.056 µM (active) | 2.21 µM (inactive) | 0.219 µM (active) | 0.0483 µM (active) | 0.151 µM (active) | 0.0174 µM (active) | < 0.01 µM (active) | 0.202 µM (active) | 2.86 µM (inactive) | 0.292 µM (active) | 0.301 µM (active) |  | 0.0345 µM (active) | 0.546 µM (active) |
| CC[C@@]1(OC(=O)CCC(=O)O)C(=O)OCc2c1cc1n(c2=O)Cc2cc3ccccc3nc2-1 | 0.0263 µM (active) | 0.0309 µM (active) | 0.0271 µM (active) | 0.458 µM (active) | 0.472 | 1.29 µM (inactive) | 0.659 µM (active) | 3.86 µM (inactive) | 1.09 µM (active) | < 0.01 µM (active) | < 0.01 µM (active) | 0.239 µM (active) | 0.193 µM (active) | 0.0281 µM (active) | 1.23 µM (inactive) | 1.85 µM (inactive) | 0.127 µM (active) | 0.0519 µM (active) | < 0.01 µM (active) | 0.104 µM (active) |
| O=[N+]([O-])c1oc2ccc3ccccc3c2c1CCO | 5.27 µM (inactive) | 2.25 µM (inactive) | 3.51 µM (inactive) | 0.435 µM (active) | 3.56 | 3.5 µM (inactive) | 9.33 µM (inactive) | 11.1 µM (inactive) | 1.77 µM (inactive) | 1.04 µM (active) | 0.0479 µM (active) | 13.1 µM (inactive) | 3.96 µM (inactive) | 3.28 µM (inactive) | 1.38 µM (inactive) | 1.85 µM (inactive) | 0.546 µM (active) | 7.24 µM (inactive) | 0.114 µM (active) | 4.41 µM (inactive) |
| C=C1[C@H](OCC(C)C)[C@@H](O)[C@@H](OC(=O)c2cccnc2)C(C)(C)/C=C/[C@H](C)[C@H](OC(C)=O)[C@@]2(O)C[C@@](C)(OC(C)=O)[C@H](OC(=O)c3ccccc3)[C@@H]2[C@H]1OC(C)=O | 1.67 µM (inactive) | 0.488 µM (active) | 1.91 µM (inactive) | 0.19 µM (active) | 1.16 | 0.723 µM (active) | 1.34 µM (inactive) | > 2.54 µM (inactive) | 0.451 µM (active) | 0.138 µM (active) | 0.0126 µM (active) | 1.66 µM (inactive) | 0.741 µM (active) | 0.482 µM (active) | 1.14 µM (inactive) | > 2.13 µM (inactive) | 0.332 µM (active) | 3.1 µM (inactive) | 1.16 µM (inactive) | 0.134 µM (active) |
